Our source for the Solubility values is patent publication US11656384B2, “Composition, film, lens, solid state imaging element, and compounds” (FUJIFILM Corporation, priority 2017, dated 2023).

The data set is described as follows: Dissolution test: solubility of the compound in a solvent at 25° C.
Where [1] appears, read: solvent PGMEA/PGME (90% by mass/10% by mass).
The mark [2] stands for this setting: solvent Diethylene glycol monobutyl ether acetate.

The structures appear in SMILES notation.

Experimental: By the following method, the solubility of the compound represented by General Formula (I) in a solvent was investigated.
Then, solids were removed using a 0.5 μm TEFLON (registered trademark) filter. Thereafter, the obtained filtrate was caused to volatilize for 3 hours at 150° C. in a vacuum, and the content of residues was measured, thereby quantifying the content of solids dissolved in the solvent.

Turning to `Clc1ccc(-c2ccc(Nc3nc(Nc4ccc(-c5ccc(Cl)cc5)cc4)nc(Nc4ccc(-c5ccc(Cl)cc5)cc4)n3)cc2)cc1` [Compound A-22], under “solvent PGMEA”, the Solubility result is given as “Less than 0.5% by % by mass”. `O=[N+]([O-])c1ccc(Nc2nc(Nc3ccc([N+](=O)[O-])cc3)nc(Nc3ccc([N+](=O)[O-])cc3)n2)cc1` [Compound A-6]: the Solubility reads like this: (solvent Cyclohexyl acetate) < 0.5% by mass; (solvent PGMEA) “Less than 0.5% by % by mass”.

For the compound `c1ccc(Nc2nc(Nc3ccccc3)nc(Nc3ccc(-c4ccc(-c5ccccc5)cc4)cc3)n2)cc1` [Compound A-19], the Solubility result (solvent PGMEA) is “Less than 0.5% by % by mass”. Turning to `CN(c1ccccc1)c1nc(Nc2ccccc2)nc(Nc2ccccc2)n1` [Compound A-10], the Solubility (solvent Anisole) was < 0.5% by mass, the Solubility entry (solvent PGMEA) is “Less than 0.5% by % by mass” and the Solubility (solvent Propylene glycol diacetate) is listed as < 0.5% by mass. On to `CN(c1ccccc1)c1nc(Nc2ccc(-c3ccc(-c4ccccc4)cc3)cc2)nc(Nc2ccc(-c3ccc(-c4ccccc4)cc3)cc2)n1` [Compound A-23], for which, for the setting “solvent PGMEA”, the Solubility entry is “Less than 0.5% by % by mass”. For `c1ccc(-c2ccc(-c3ccc(-c4ccc(Nc5nc(Nc6ccc(-c7ccc(-c8ccc(-c9ccccc9)cc8)cc7)cc6)nc(Nc6ccc(-c7ccc(-c8ccc(-c9ccccc9)cc8)cc7)cc6)n5)cc4)cc3)cc2)cc1` [Compound A-21], the Solubility result (solvent PGMEA) is “Less than 0.5% by % by mass”. With `O=S(=O)(Nc1ccccc1)c1cccc2c(S(=O)(=O)Nc3ccccc3)cccc12` [Compound A-15], the Solubility is given as < 0.5% by mass (solvent Cyclohexyl acetate), “Less than 0.5% by % by mass” (solvent PGMEA) and < 0.5% by mass under setting [1].

Regarding `Brc1ccc(Nc2nc(Nc3ccc(Br)cc3)nc(Nc3ccc(Br)cc3)n2)cc1` [Compound A-5], the Solubility by setting is: (solvent 3-methoxybutyl acetate) < 0.5% by mass; (solvent PGMEA) “Less than 0.5% by % by mass”. `O=C(Nc1ccccc1)c1cc(C(=O)Nc2ccccc2)cc(C(=O)Nc2ccccc2)c1` [Compound A-14]: the Solubility by setting is: (solvent Ethyl lactate) < 0.5% by mass; (solvent PGMEA) “Less than 0.5% by % by mass”. Regarding `O=S(=O)(Nc1ccccc1)c1cccc2c(S(=O)(=O)Nc3ccccc3)cccc12` [Compound A-17], the Solubility (solvent Cyclopentanone/PGME (90% by mass/10% by mass)) was < 0.5% by mass. On to `N#Cc1ccc(Nc2nc(Nc3ccc(C#N)cc3)nc(Nc3ccc(C#N)cc3)n2)cc1` [Compound A-2], for which the Solubility was < 0.5% by mass (solvent Cyclohexyl methyl ether) and “Less than 0.5% by % by mass” (solvent PGMEA).

On to `N#Cc1ccc(-c2ccc(Nc3nc(Nc4ccc(-c5ccc(C#N)cc5)cc4)nc(Nc4ccc(-c5ccc(C#N)cc5)cc4)n3)cc2)cc1` [Compound A-8], for which the Solubility by setting is: (solvent Cyclopentanone) < 0.5% by mass; (solvent PGMEA) “Less than 0.5% by % by mass”. In the case of `N#Cc1ccc(-c2ccc(Nc3nc(Nc4ccc(-c5ccc(C#N)cc5)cc4)nc(Oc4ccccc4)n3)cc2)cc1` [Compound A-24], the Solubility result (solvent PGMEA) is “Less than 0.5% by % by mass”.

Take `c1ccc(-c2ccc(-c3ccc(Nc4nc(Nc5ccc(-c6ccc(-c7ccccc7)cc6)cc5)nc(Nc5ccc(-c6ccc(-c7ccccc7)cc6)cc5)n4)cc3)cc2)cc1` [Compound A-7]: the Solubility entry is on record as “Less than 0.5% by % by mass” (solvent PGMEA), < 0.5% by mass (solvent PGMEA/PGME (70% by mass/30% by mass)) and < 0.5% by mass under setting [1]. Turning to `c1ccc(Nc2nc(Nc3ccccc3)nc(Sc3ccccc3)n2)cc1` [Compound A-12], the Solubility reads like this: (solvent 3-methoxybutyl acetate) < 0.5% by mass; under setting [2], < 0.5% by mass; (solvent PGMEA) “Less than 0.5% by % by mass”. `c1ccc(Nc2nc(Nc3ccccc3)nc(Oc3ccccc3)n2)cc1` [Compound A-11]: the Solubility is < 0.5% by mass (solvent Dipropylene glycol dimethyl ether) and “Less than 0.5% by % by mass” (solvent PGMEA). Regarding `c1ccc(Nc2nc(Nc3ccccc3)nc(Nc3ccccc3)n2)cc1` [Compound A-1], the Solubility (solvent Toluene) is reported as < 0.5% by mass.

As to `c1ccc(-c2ccc(-c3ccc(Nc4nc(Nc5ccc(-c6ccc(-c7ccccc7)cc6)cc5)nc(Nc5nc6ccccc6s5)n4)cc3)cc2)cc1` [Compound A-20], the Solubility result (solvent PGMEA) is reported as “Less than 0.5% by % by mass”.

As for `CSc1ccc(Nc2nc(Nc3ccc(SC)cc3)nc(Nc3ccc(SC)cc3)n2)cc1` [Compound A-9], the Solubility (solvent Cyclobutyl ether) is listed as < 0.5% by mass, the Solubility under setting [2] was < 0.5% by mass and the Solubility result (solvent PGMEA) is “Less than 0.5% by % by mass”. With `CC(=O)Nc1ccc(Nc2nc(Nc3ccc(NC(C)=O)cc3)nc(Nc3ccc(NC(C)=O)cc3)n2)cc1` [Compound A-3], the Solubility reads like this: (solvent Cyclohexanone) < 0.5% by mass; (solvent PGME) < 0.5% by mass; (solvent PGMEA) “Less than 0.5% by % by mass”. With `O=S(=O)(Nc1ccccc1)c1cccc2c(S(=O)(=O)Nc3ccccc3)cccc12` [Compound A-16], the Solubility runs as follows: (solvent 3-methoxybutyl acetate) < 0.5% by mass; (solvent PGMEA/PGME (80% by mass/20% by mass)) < 0.5% by mass. With `c1ccc2cc(Nc3nc(Nc4ccc5ccccc5c4)nc(Nc4ccc5ccccc5c4)n3)ccc2c1` [Compound A-4], the Solubility by setting is: (solvent Butyl acetate) < 0.5% by mass; (solvent PGME) < 0.5% by mass; (solvent PGMEA) “Less than 0.5% by % by mass”.
